EC50 data for six compounds are collected here from PubChem BioAssay AID743235 (The Scripps Research Institute Molecular Screening Center, 2013).

Structures are written as SMILES. Active and inactive are the calls of the source. How the calls were made is not given here. A value given as a limit tells only on which side of the number the result lay.

The test relates to Counterscreen cells for TAAR1 agonist assay, fluorescence. The experiment in a line: agonism at human TAAR1, counter-screen – cell-based, fluorescence, counter-screen for TAAR1 antagonist project, late-stage follow-up (AID 743235). A general note: Counterscreens check selectivity or assay interference.

Usually EC50 stands for the concentration needed to bring the measured effect to its halfway point. As to `O=C(NCCn1cc(SCc2ccccc2F)c2ccccc21)c1c(F)cccc1F`, the EC50 was > 29.9 µM (inactive).
Consider `COc1cc(NC(=O)c2cc3ccccc3o2)c(OC)cc1Cl`, for which the EC50 is > 29.9 µM (inactive).
With `Cc1ccc(CSCC(=O)Nc2cc(S(=O)(=O)N3CCOCC3)ccc2OCC(F)(F)F)cc1`, the EC50 was > 29.9 µM (inactive).
The value for `Cc1cccc(C(C#N)c2nc3ccccc3nc2C(F)(F)F)c1` (stereo unspecified) was > 29.9 µM (inactive).
In the case of `CCOC(=O)C1CCCN(c2c(C(=O)c3ccccc3)cnc3ccc(OC)cc23)C1` (stereo unspecified), the EC50 is 20.1 µM (inactive).
Consider `COc1cccc(-c2nn(-c3ccccc3)cc2C(=O)Nc2nccs2)c1`, for which the EC50 is > 29.9 µM (inactive).
